Results taken from patent publication US20240083897A1, “GCN2 MODULATING COMPOUNDS AND USES THEREOF” (HiberCell, Inc., priority 2021, published 2024).
Read-outs that look alike come from different tables or passages of the source.

Biological target: GCN2 (Homo sapiens (Human), UniProt Q9P2K8)
Test: TR-FRET biochemical assay for inhibition of GCN2
[1] = GCN2 2 nM, 100 nM GFP-eIF2a, 150 μM ATP, TR-FRET

Sequence of GCN2 (Q9P2K8 whole entry): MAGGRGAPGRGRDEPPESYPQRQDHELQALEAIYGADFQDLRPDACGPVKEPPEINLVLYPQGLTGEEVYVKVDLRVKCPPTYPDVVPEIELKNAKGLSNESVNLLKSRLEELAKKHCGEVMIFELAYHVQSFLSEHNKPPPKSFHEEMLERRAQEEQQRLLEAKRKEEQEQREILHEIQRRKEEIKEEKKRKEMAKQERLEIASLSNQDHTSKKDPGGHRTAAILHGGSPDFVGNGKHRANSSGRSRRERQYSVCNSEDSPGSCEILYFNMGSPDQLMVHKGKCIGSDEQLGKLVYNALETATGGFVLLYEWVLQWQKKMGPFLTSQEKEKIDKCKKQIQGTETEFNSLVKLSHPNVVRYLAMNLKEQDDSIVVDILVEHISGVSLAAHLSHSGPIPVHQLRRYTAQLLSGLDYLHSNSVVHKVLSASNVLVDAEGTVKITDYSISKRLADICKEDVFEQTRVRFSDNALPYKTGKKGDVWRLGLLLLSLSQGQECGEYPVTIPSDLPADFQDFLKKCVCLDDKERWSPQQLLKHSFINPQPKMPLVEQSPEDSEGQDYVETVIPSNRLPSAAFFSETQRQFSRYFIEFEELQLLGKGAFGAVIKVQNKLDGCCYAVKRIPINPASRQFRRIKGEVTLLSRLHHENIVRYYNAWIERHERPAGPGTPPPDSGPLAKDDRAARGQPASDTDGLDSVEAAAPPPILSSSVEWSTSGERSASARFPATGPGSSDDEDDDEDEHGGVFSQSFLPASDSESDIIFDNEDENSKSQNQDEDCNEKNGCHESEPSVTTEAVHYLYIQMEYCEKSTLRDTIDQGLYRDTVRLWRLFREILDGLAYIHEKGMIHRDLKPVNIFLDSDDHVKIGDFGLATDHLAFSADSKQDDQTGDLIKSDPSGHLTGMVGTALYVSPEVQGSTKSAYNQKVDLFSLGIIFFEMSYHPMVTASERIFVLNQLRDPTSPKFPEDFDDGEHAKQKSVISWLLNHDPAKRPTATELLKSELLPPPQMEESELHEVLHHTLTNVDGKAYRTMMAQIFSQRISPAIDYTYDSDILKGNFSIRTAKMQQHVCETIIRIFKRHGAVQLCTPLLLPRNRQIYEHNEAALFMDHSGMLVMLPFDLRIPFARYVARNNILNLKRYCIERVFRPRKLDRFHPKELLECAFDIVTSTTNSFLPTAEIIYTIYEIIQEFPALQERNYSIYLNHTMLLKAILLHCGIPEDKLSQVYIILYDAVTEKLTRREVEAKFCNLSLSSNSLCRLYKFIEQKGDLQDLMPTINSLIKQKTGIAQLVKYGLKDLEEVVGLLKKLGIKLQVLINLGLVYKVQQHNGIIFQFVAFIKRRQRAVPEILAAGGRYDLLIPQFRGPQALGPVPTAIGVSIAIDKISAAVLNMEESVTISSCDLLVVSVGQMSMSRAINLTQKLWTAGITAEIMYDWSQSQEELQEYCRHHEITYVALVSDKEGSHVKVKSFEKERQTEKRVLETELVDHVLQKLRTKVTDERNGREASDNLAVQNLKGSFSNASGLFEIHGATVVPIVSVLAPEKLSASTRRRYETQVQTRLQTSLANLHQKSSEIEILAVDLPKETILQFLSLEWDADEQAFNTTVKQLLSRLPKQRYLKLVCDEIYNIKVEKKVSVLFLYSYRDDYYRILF

CNC(=O)c1ncn2cc(-c3c(F)ccc(NS(=O)(=O)c4cc(C#N)cnc4OC)c3F)ncc12 [Compound 92, 6-[3-(5-cyano-2-methoxypyridine-3-sulfonamido)-2,6-difluorophenyl]-N-methylimidazo[1,5-a]pyrazine-1-carboxamide] gave an IC50 of 50 to 500 nM.
CNC(=O)c1ncn2cc(-c3c(F)ccc(NS(=O)(=O)c4cc(Cl)cnc4C)c3F)ncc12 [Compound 93, 6-[3-(5-chloro-2-methylpyridine-3-sulfonamido)-2,6-difluorophenyl]-N-methylimidazo[1,5-a]pyrazine-1-carboxamide] gave an IC50 [1] of less than 50 nM.
With COc1ncc(Cl)cc1S(=O)(=O)Nc1ccc(F)c(-c2ccc3c(CO)ncn3c2)c1F [Compound 94, 5-chloro-N-(2,4-difluoro-3-(1-(hydroxymethyl)imidazo[1,5-a]pyridin-6-yl)phenyl)-2-methoxypyridine-3-sulfonamide] the IC50 was 500 to 1000 nM.
Cc1ncc(Cl)cc1S(=O)(=O)Nc1ccc(F)c(-c2ccc3c(-c4ncc[nH]4)ncn3n2)c1F [Compound 95, 5-chloro-N-[2,4-difluoro-3-[5-(1H-imidazol-2-yl)imidazo[1,5-b]pyridazin-2-yl]phenyl]-2-methylpyridine-3-sulfonamide] showed an IC50 [1] of less than 50 nM.
CNC(=O)c1ncn2c1CC[C@H](c1c(F)ccc(NS(=O)(=O)c3cc(Cl)cnc3OC)c1F)[C@@H]2C [Compound 96-1, (5S,6R)-6-[3-(5-chloro-2-methoxypyridine-3-sulfonamido)-2,6-difluorophenyl]-N,5-dimethyl-5H,6H,7H,8H-imidazo[1,5-a]pyridine-1-carboxamide] was tested, and the IC50 was 50 to 500 nM.
CNC(=O)c1ncn2c1CC[C@@H](c1c(F)ccc(NS(=O)(=O)c3cc(Cl)cnc3OC)c1F)[C@H]2C [Compound 96-2, (5R,6S)-6-[3-(5-chloro-2-methoxypyridine-3-sulfonamido)-2,6-difluorophenyl]-N,5-dimethyl-5H,6H,7H,8H-imidazo[1,5-a]pyridine-1-carboxamide] showed an IC50 of 500 to 1000 nM.
COc1ncc(C#N)cc1S(=O)(=O)Nc1ccc(F)c(-c2ccc3c(-c4ncc[nH]4)ncn3n2)c1F [Compound 97, 5-cyano-N-[2,4-difluoro-3-[5-(1H-imidazol-2-yl)imidazo[1,5-b]pyridazin-2-yl]phenyl]-2-methoxypyridine-3-sulfonamide] gave an IC50 [1] of less than 50 nM.
For COc1ncc(F)cc1S(=O)(=O)Nc1ccc(F)c(-c2ccc3c(-c4ncc[nH]4)ncn3n2)c1F [Compound 98, N-[2,4-difluoro-3-[5-(1H-imidazol-2-yl)imidazo[1,5-b]pyridazin-2-yl]phenyl]-5-fluoro-2-methoxypyridine-3-sulfonamide], the IC50 [1] was less than 50 nM.
COc1ncc(Cl)cc1S(=O)(=O)Nc1ccc(F)c(-c2ccc3c(-c4ccno4)ncn3c2)c1F [Compound 99, 5-chloro-N-(2,4-difluoro-3-(1-(isoxazol-5-yl)imidazo[1,5-a]pyridin-6-yl)phenyl)-2-methoxypyridine-3-sulfonamide] was tested, and the IC50 [1] was less than 50 nM.
Molecule COc1ncc(Cl)cc1S(=O)(=O)Nc1ccc(F)c(-c2ccc3c(C(C)O)ncn3c2)c1F (stereo not shown) [Compound 100, 5-chloro-N-[2,4-difluoro-3-[1-(1-hydroxyethyl)imidazo[1,5-a]pyridin-6-yl]phenyl]-2-methoxypyridine-3-sulfonamide] has an IC50 of 500 to 1000 nM.
Work on CNC(=O)c1ncn2cc(-c3c(F)ccc(NS(=O)(=O)c4cc(Cl)cnc4OC)c3Cl)ccc12 [Compound 101, 6-(2-chloro-3-((5-chloro-2-methoxypyridine)-3-sulfonamido)-6-fluorophenyl)-N-methylimidazo[1,5-a]pyridine-1-carboxamide] yielded an IC50 [1] of less than 50 nM.
COc1ncc(Cl)cc1S(=O)(=O)Nc1ccc(F)c(-c2ccc3c(-c4nnc(C(F)(F)F)[nH]4)ncn3c2)c1F [Compound 102, 5-chloro-N-(2,4-difluoro-3-[1-[5-(trifluoromethyl)-4H-1,2,4-triazol-3-yl]imidazo[1,5-a]pyridin-6-yl]phenyl)-2-methoxypyridine-3-sulfonamide] was tested, and the IC50 was 50 to 500 nM.
COc1ncc(Cl)cc1S(=O)(=O)Nc1ccc(F)c(-c2ccc3c(-c4ncc[nH]4)ncn3c2)c1Cl [Compound 103, 5-chloro-N-[2-chloro-4-fluoro-3-[1-(1H-imidazol-2-yl)imidazo[1,5-a]pyridin-6-yl]phenyl]-2-methoxypyridine-3-sulfonamide] gave an IC50 [1] of less than 50 nM.
In the case of COc1ncc(Cl)cc1S(=O)(=O)Nc1ccc(F)c(-c2ccc3c(-c4ncc[nH]4)ncn3c2F)c1F [Compound 104, 5-chloro-N-[2,4-difluoro-3-[5-fluoro-1-(1H-imidazol-2-yl)imidazo[1,5-a]pyridin-6-yl]phenyl]-2-methoxypyridine-3-sulfonamide], the IC50 [1] is reported as less than 50 nM.
For COc1ncc(Cl)cc1S(=O)(=O)Nc1ccc(F)c(-c2ccc3c(-c4ccn[nH]4)ncn3c2F)c1F [Compound 105, 5-chloro-N-[2,4-difluoro-3-[5-fluoro-1-(2H-pyrazol-3-yl)imidazo[1,5-a]pyridin-6-yl]phenyl]-2-methoxypyridine-3-sulfonamide], the IC50 [1] was less than 50 nM.
For CNC(=O)c1ncn2cc(-c3c(F)ccc(NS(=O)(=O)c4cc(Cl)cnc4OC)c3Cl)ncc12 [Compound 106, 6-[2-chloro-3-(5-chloro-2-methoxypyridine-3-sulfonamido)-6-fluorophenyl]-N-methylimidazo[1,5-a]pyrazine-1-carboxamide], the IC50 [1] was less than 50 nM.
In the case of COc1ncc(F)cc1S(=O)(=O)Nc1ccc(F)c(-c2ccc3c(-c4ncc[nH]4)ncn3c2F)c1F [Compound 107, N-[2,4-difluoro-3-[5-fluoro-1-(1H-imidazol-2-yl)imidazo[1,5-a]pyridin-6-yl]phenyl]-5-fluoro-2-methoxypyridine-3-sulfonamide], the IC50 [1] is reported as less than 50 nM.
Work on Cc1ncc(F)cc1S(=O)(=O)Nc1ccc(F)c(-c2ccc3c(-c4ncc[nH]4)ncn3c2F)c1F [Compound 108, N-[2,4-difluoro-3-[5-fluoro-1-(1H-imidazol-2-yl)imidazo[1,5-a]pyridin-6-yl]phenyl]-5-fluoro-2-methylpyridine-3-sulfonamide] yielded an IC50 [1] of less than 50 nM.
Work on Cc1ncc(Cl)cc1S(=O)(=O)Nc1ccc(F)c(-c2ccc3c(-c4ncc[nH]4)ncn3c2F)c1F [Compound 109, 5-chloro-N-[2,4-difluoro-3-[5-fluoro-1-(1H-imidazol-2-yl)imidazo[1,5-a]pyridine-6-yl]phenyl]-2-methylpyridine-3-sulfonamide] yielded an IC50 [1] of less than 50 nM.
In the case of COc1ncc(Cl)cc1S(=O)(=O)Nc1ccc(F)c(-c2cn3cnc(-c4nc5ccccc5[nH]4)c3cn2)c1F [Compound 110, N-[3-[1-(1H-1,3-benzodiazol-2-yl)imidazo[1,5-a]pyrazin-6-yl]-2,4-difluorophenyl]-5-chloro-2-methoxypyridine-3-sulfonamide], the IC50 [1] is reported as less than 50 nM.
COc1ncc(F)cc1S(=O)(=O)Nc1ccc(F)c(-c2cn3cnc(-c4nc5ccccc5[nH]4)c3cn2)c1F [Compound 111, N-[3-[1-(1H-1,3-benzodiazol-2-yl)imidazo[1,5-a]pyrazin-6-yl]-2,4-difluorophenyl]-5-fluoro-2-methoxypyridine-3-sulfonamide] gave an IC50 [1] of less than 50 nM.
In the case of COc1ncc(C#N)cc1S(=O)(=O)Nc1ccc(F)c(-c2cn3cnc(-c4nc5ccccc5[nH]4)c3cn2)c1F [Compound 112, N-[3-[1-(1H-1,3-benzodiazol-2-yl)imidazo[1,5-a]pyrazin-6-yl]-2,4-difluorophenyl]-5-cyano-2-methoxypyridine-3-sulfonamide], the IC50 [1] is reported as less than 50 nM.
In the case of Cc1ncc(Cl)cc1S(=O)(=O)Nc1ccc(F)c(-c2cn3cnc(-c4nc5ccccc5[nH]4)c3cn2)c1F [Compound 113, N-[3-[1-(1H-1,3-benzodiazol-2-yl)imidazo[1,5-a]pyrazin-6-yl]-2,4-difluorophenyl]-5-chloro-2-methylpyridine-3-sulfonamide], the IC50 [1] is reported as less than 50 nM.
In the case of Cc1ncc(F)cc1S(=O)(=O)Nc1ccc(F)c(-c2cn3cnc(-c4nc5ccccc5[nH]4)c3cn2)c1F [Compound 114, N-[3-[1-(1H-1,3-benzodiazol-2-yl)imidazo[1,5-a]pyrazin-6-yl]-2,4-difluorophenyl]-5-fluoro-2-methylpyridine-3-sulfonamide], the IC50 [1] is reported as less than 50 nM.
Molecule COc1ncc(F)cc1S(=O)(=O)Nc1ccc(F)c(-c2ccc3c(-c4nc(Cl)c[nH]4)ncn3c2F)c1F [Compound 115, N-[3-[1-(4-chloro-1H-imidazol-2-yl)-5-fluoroimidazo[1,5-a]pyridin-6-yl]-2,4-difluorophenyl]-5-fluoro-2-methoxypyridine-3-sulfonamide] has an IC50 [1] of less than 50 nM.
In the case of COc1ncc(Cl)cc1S(=O)(=O)Nc1ccc(F)c(-c2ccc3c(-c4nc(Cl)c[nH]4)ncn3c2F)c1F [Compound 116, 5-chloro-N-[3-[1-(4-chloro-1H-imidazol-2-yl)-5-fluoroimidazo[1,5-a]pyridin-6-yl]-2,4-difluorophenyl]-2-methoxypyridine-3-sulfonamide], the IC50 [1] is reported as less than 50 nM.
Molecule CNC(=O)c1ncn2cc(-c3c(F)ccc(NS(=O)(=O)c4cc(Cl)cnc4OC)c3C#N)ncc12 [Compound 117, 6-[3-(5-chloro-2-methoxypyridine-3-sulfonamido)-2-cyano-6-fluorophenyl]-N-methylimidazo[1,5-a]pyrazine-1-carboxamide] has an IC50 of 50 to 500 nM.
Work on COc1ncc(F)cc1S(=O)(=O)Nc1ccc(F)c(-c2ccc3c(-c4ccno4)ncn3c2)c1F [Compound 118, N-[2,4-difluoro-3-[1-(1,2-oxazol-5-yl)imidazo[1,5-a]pyridin-6-yl]phenyl]-5-fluoro-2-methoxypyridine-3-sulfonamide] yielded an IC50 [1] of less than 50 nM.
COc1ncc(C#N)cc1S(=O)(=O)Nc1ccc(F)c(-c2ccc3c(-c4ccno4)ncn3c2)c1F [Compound 119, 5-cyano-N-[2,4-difluoro-3-[1-(1,2-oxazol-5-yl)imidazo[1,5-a]pyridin-6-yl]phenyl]-2-methoxypyridine-3-sulfonamide] gave an IC50 [1] of less than 50 nM.
In the case of CNC(=O)c1ncn2cc(-c3c(F)ccc(NS(=O)(=O)c4cc(Cl)cnc4OC)c3F)sc12 [Compound 120, 2-[3-(5-chloro-2-methoxypyridine-3-sulfonamido)-2,6-difluorophenyl]-N-methylimidazo[4,3-b][1,3]thiazole-7-carboxamide], the IC50 is reported as 500 to 1000 nM.
Cc1ncc(Cl)cc1S(=O)(=O)Nc1ccc(F)c(-c2ccc3c(-c4ccno4)ncn3c2)c1F [Compound 121, 5-chloro-N-[2,4-difluoro-3-[1-(1,2-oxazol-5-yl)imidazo[1,5-a]pyridin-6-yl]phenyl]-2-methylpyridine-3-sulfonamide] showed an IC50 [1] of less than 50 nM.
